The values below come from PMC10822852, “Structural and biochemical insights into the mechanism of the Gabija bacterial immunity system” (Nature Communications, 2024).

The target of series [1] is T1, Gabija complex (GajA and GajB) (Bacillus cereus, UniProt J8H9C1+J8HQ06).
T1 construct: full-length GajA (1-578, Strep-tag II) co-expressed with full-length GajB (1-493, 6xHis) in E. coli BL21(DE3); hetero-octamer 4:4
As to the kind of experiment: inhibition of DNA cleavage, agarose gel. The series is classed as biochemical. The conditions noted are these: 1 mM MgCl2, pH 9, 37 °C, 5 min.

Series [2] concerns the molecule itself. As to the kind of experiment: SEC-MALS; Superdex 200 10/300 Increase, samples injected at 1 mg/ml in Buffer B (10 mM Tris-HCl pH 7.5, 300 mM NaCl, 2 mM DTT), 0.5 ml/min; GajA, GajB and the co-purified Gabija complex. On the technique in general: In gel filtration, larger molecules generally elute earlier.

T1 sequence (J8HQ06 1-493, one chain of several): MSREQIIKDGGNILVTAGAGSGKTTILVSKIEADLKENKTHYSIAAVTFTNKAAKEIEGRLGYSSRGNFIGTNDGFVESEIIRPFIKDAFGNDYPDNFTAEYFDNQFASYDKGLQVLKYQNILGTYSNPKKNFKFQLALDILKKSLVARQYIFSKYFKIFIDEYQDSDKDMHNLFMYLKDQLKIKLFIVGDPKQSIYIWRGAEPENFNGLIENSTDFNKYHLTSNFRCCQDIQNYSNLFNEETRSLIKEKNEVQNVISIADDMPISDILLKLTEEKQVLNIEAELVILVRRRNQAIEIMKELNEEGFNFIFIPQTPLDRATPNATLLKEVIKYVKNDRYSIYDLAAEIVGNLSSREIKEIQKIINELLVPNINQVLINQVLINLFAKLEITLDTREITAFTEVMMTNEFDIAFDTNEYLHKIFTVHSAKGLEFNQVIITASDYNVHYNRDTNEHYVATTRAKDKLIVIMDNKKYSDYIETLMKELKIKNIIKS

Turning to `Nc1ncnc2c1ncn2[C@@H]1O[C@H](COP(=O)(O)OP(=O)(O)O)[C@@H](O)[C@H]1O` [ADP], in series [1] (supercoiled pUC19-15 plasmid), the “inhibition of DNA cleavage, agarose gel” value is reported as “significantly inhibited by different NTP, dNTP, ADP, but not AMP”. With `Nc1ncnc2c1ncn2[C@@H]1O[C@H](COP(=O)(O)OP(=O)(O)NP(=O)(O)O)[C@@H](O)[C@H]1O` [AMP-PNP], the “inhibition of DNA cleavage, agarose gel” value in series [1] (non-hydrolysable ATP analogue, DNA substrate not given) was “cleavage activity of the Gabija complex is also inhibited by AMP-PNP”. Turning to `Nc1nc2c(ncn2[C@@H]2O[C@H](COP(=O)(O)OP(=O)(O)OP(=O)(O)O)[C@@H](O)[C@H]2O)c(=O)[nH]1` [GTP], in series [1] (supercoiled pUC19-15 plasmid), the “inhibition of DNA cleavage, agarose gel” value is “significantly inhibited with the increased concentration of ATP and GTP”.

B1: GajA (enzyme, Bacillus cereus VD045, UniProt J8H9C1 1-578, looked up)
chain: MKFSNITIKNFRNFEKVNINLDNKNVIFGMNDIGKTNFLYALRFLLDKEIRKFGFNKSDYHKHDTSKKIEIILTLDLSNYEKDEDTKKLISVVKGARTSANADVFYIALESKYDDKELYGNIILKWGSELDNLIDIPGRGNINALDNVFKVIYINPLVDLDKLFAQNKKYIFEESQGNESDEGILNNIKSLTDQVNQQIGEMTIIKGFQQEITSEYRSLKKEEVSIELKSEMAIKGFFSDIIPYIKKDGDSNYYPTSGDGRRKMLSYSIYNYLAKKKYEDKIVIYLIEEPEISLHRSMQIALSKQLFEQSTYKYFFLSTHSPELLYEMDNTRLIRVHSTEKVVCSSHMYNVEEAYGSVKKKLNKALSSALFAERVLLIEGPSEKILFEKVLDEVEPEYELNGGFLLEVGGTYFNHYVCTLNDLGITHIIKTDNDLKSKKGKKGVYELLGLNRCLNLLGRENLDEITIDIPEDIKGKKKKERLNERKKEIFKQYKNEVGEFLGERIYLSEIDLENDLYSAIGESMKRIFENEDPVHYLQKSKLFNMVELVNNLSTKDCFDVFEHEKFACLKELVGSDRG
notes: OLD family nuclease with ATPase domain (1-351) and Toprim domain (352-578); The methods describe only the co-expression and purification of the complex; Cloned into PET-52b; also called GajA1; GajA2; source: E. coli BL21 (DE3), purified (Strep-tactin Sepharose, Superdex 200); co-expressed with GajB for the Gabija complex
As usually defined, the stoichiometry N is a count of units in the complex or per binding partner. For B1, in series [2], the “stoichiometry N” value stood at 4.
